Measured values published in patent publication US20240239790A1, “7-Morpholino-1,6-Naphthyridin-5-yl Derivatives and Pharmaceutical Compositions Thereof Useful as DNA-PK Inhibitor” (adMare Therapeutics Society, priority 2021, published 2024).
Where two headings read alike, the source gives them in different places.

How the values were obtained:
[1] = biological target: T1, DNA-PK phosphorylation at Serine 2056 (Homo sapiens, UniProt P78527); assay: Cellular Assay for Inhibition of DNA-PK Phosphorylation at Serine 2056 in FaDu cells (sandwich ELISA, neocarzinostatin); type: cell-based; details: pSer2056 DNA-PK, Table 3
T1 construct: FaDu cells were purchased from ATCC; host or cells: FaDu
How it was run: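 pSer2056 and total DNA-PK were measured by sandwich ELISA in BCA-normalised FaDu lysates. Cells had 1 h compound exposure (0.3% DMSO), then 2 h with 1 μg/mL final neocarzinostatin. IC50 was fitted (variable slope) to % inhibition scaled against NCS-stimulated and DMSO-only controls.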

FaDu cell line = assay: Prodrug Activation in Hypoxic Stirred Tumour Cell Suspensions; details: 10 μM, 4 hours
Method: Prodrug compounds were assayed to determine their stability and rate of activation in stirred cell suspensions under 0.2 vs 5% oxygen. Compounds were diluted 1:1000 from DMSO stocks to 10 μM final concentration in tumour cell suspensions (1% by cell volume) in MEM media containing 10% FBS, 10 mM glucose & 3.7 g/L sodium bicarbonate. Cell lines assayed included A253, A549, Detroit562, FaDu, HCT116, HEP G2, HT29, SCC25, SCC9, SiHa & TC32. Compounds and cells were then incubated for 4 hours under constant mixing at 37° C. under 5% CO2 and either 0.2 or 5% O2. Following the incubation period cellular activation of the compounds was assayed via MeOH extraction and HPLC quantification.

[2] = tested on: pH2AX induction in HCT116 ATM-/- multicellular tumour spheroids; assay: Prodrug Radiation Sensitization in Multicellular Tumour Spheroids, inhibition of pH2AX induction following radiation; type: cell-based; details: Homo sapiens, HCT-116, 20 Gy
Method: Prodrug compounds were assayed to determine their potency in 3D multicellular spheroids in media maintained under 20% vs 5% oxygen. Multicellular tumour spheroids were grown to approximately 0.5 mm in diameter and irradiated with 20 Gy in combination with inhibitor test compounds to determine their potency using HCT 116 and FaDu cell lines. Experiments were carried out in 96 well plates containing 0.7 mls of MEM media containing 10% FBS and 10 mM glucose under 5% CO2 at 37° C. Following dilution of compounds 1:1000 from DMSO stocks, compounds were serially diluted from 10 μM down to 3.5 nM and 5-10 spheroids added. 96 well plates were constantly stirred to avoid spheroids settling during the course of the experiment. Endpoints were pDNA-PK (ser 2056) or pH2AX (ser 139) status in spheroid cryosections taken 1 or 2 hours following radiation and fixed immediately in formalin. Using tumour cell lines deficient in ATM improved the assay signal to noise and gH2AX readout. Using this assay prodrug activity could be compared in the more oxygenated outer spheroid layers versus less oxygenated hypoxic central cell layers.

[3] = 5% O2, inner layers, read-out: Prodrug 5% O2 Inner layers EC50
[4] = 5% O2, outer layers, read-out: Prodrug 5% O2 Outer layers EC50
[5] = 20% O2, outer layers, read-out: Prodrug 20% O2 Outer layers EC50

Row | SMILES | IC50 [1] [nM] | Fraction of prodrug converted to active form, Hypoxic 0.2% O2 (FaDu cell line) | Fraction of prodrug converted to active form, Oxic 5% O2 (FaDu cell line) | EC50 [2, 3] [nM] | EC50 [2, 4] [nM] | EC50 [2, 5] [nM]
1 | CC(c1cnc([N+](=O)[O-])n1C)N(c1cnc2cc(N3CCOCC3)nc(O[C@H]3CC[C@@H](Nc4ncc(OCCN5CCN(C)CC5)cn4)CC3)c2c1)S(C)(=O)=O (stereo partly drawn) [LFA2060, N-[1-(3-methyl-2-nitro-imidazol-4-yl)ethyl]-N-[5-[4-[[5-[2-(4-methylpiperazin-1-yl)ethoxy]pyrimidin-2-yl]amino]cyclohexoxy]-7-morpholino-1,6-naphthyridin-3-yl]methanesulfonamide] | 10000 to 30000 | A (A is 0.15 to 1) | D (D is 0 to 0.02) | 500 to 1000 | 1000 to 10000 | 10000 to 100000
2 | CC(c1cnc([N+](=O)[O-])n1C)N(c1cnc2cc(N3CCOCC3)nc(O[C@H]3CC[C@@H](Nc4ncc(OCCN(C)C)cn4)CC3)c2c1)S(C)(=O)=O (stereo partly drawn) [LFA2061, N-[5-[4-[[5-[2-(dimethylamino)ethoxy]pyrimidin-2-yl]amino]cyclohexoxy]-7-morpholino-1,6-naphthyridin-3-yl]-N-[1-(3-methyl-2-nitro-imidazol-4-yl)ethyl]methanesulfonamide] | 10000 to 30000 | B (B is 0.05 to 0.15) | D (D is 0 to 0.02) | 500 to 1000 | 1000 to 10000 | 10000 to 100000
3 | CN1CCC(Oc2cnc(N[C@H]3CC[C@@H](Oc4nc(N5CCOCC5)cc5ncc(N(Cc6cnn(C)c6[N+](=O)[O-])S(C)(=O)=O)cc45)CC3)nc2)C1 (stereo partly drawn) [LFA2062, N-[(1-methyl-5-nitro-pyrazol-4-yl)methyl]-N-[5-[4-[[5-(1-methylpyrrolidin-3-yl)oxypyrimidin-2-yl]amino]cyclohexoxy]-7-morpholino-1,6-naphthyridin-3-yl]methanesulfonamide] | 1000 to 10000 | B (B is 0.05 to 0.15) | B (B is 0.05 to 0.15) | 10 to 500 | 500 to 1000 | 1000 to 10000
4 | CC(Oc1cnc2cc(N3CCOCC3)nc(O[C@H]3CC[C@@H](N(C)c4ncccn4)CC3)c2c1)c1cnc([N+](=O)[O-])n1C (stereo partly drawn) [LFA2063, N-methyl-N-[4-[[3-[1-(3-methyl-2-nitro-imidazol-4-yl)ethoxy]-7-morpholino-1,6-naphthyridin-5-yl]oxy]cyclohexyl]pyrimidin-2-amine] | 10000 to 30000 | A (A is 0.15 to 1) | B (B is 0.05 to 0.15) | 10 to 500 | 1000 to 10000 | 1000 to 10000
5 | CC(c1cnn(C)c1[N+](=O)[O-])N(c1cnc2cc(N3CCOCC3)nc(O[C@H]3CC[C@@H](Nc4ncc(OC5CCN(C)C5)cn4)CC3)c2c1)S(C)(=O)=O (stereo partly drawn) [LFA2064, N-[1-(1-methyl-5-nitro-pyrazol-4-yl)ethyl]-N-[5-[4-[[5-(1-methylpyrrolidin-3-yl)oxypyrimidin-2-yl]amino]cyclohexoxy]-7-morpholino-1,6-naphthyridin-3-yl]methanesulfonamide] | 1000 to 10000 | B (B is 0.05 to 0.15) | C (C is 0.02 to 0.05) | 10 to 500 | 1000 to 10000 | 1000 to 10000
6 | CN1CCN(c2cnc(N[C@H]3CC[C@@H](Oc4nc(N5CCOCC5)cc5ncc(OCc6cnc([N+](=O)[O-])n6C)cc45)CC3)nc2)CC1 [LFA2065, N-[4-[[3-[(3-methyl-2-nitro-imidazol-4-yl)methoxy]-7-morpholino-1,6-naphthyridin-5-yl]oxy]cyclohexyl]-5-(4-methylpiperazin-1-yl)pyrimidin-2-amine] | 10000 to 30000 | A (A is 0.15 to 1) | C (C is 0.02 to 0.05) | 10 to 500 | 1000 to 10000 | 1000 to 10000
7 | CC(Oc1cnc2cc(N3CCOCC3)nc(O[C@H]3CC[C@@H](Nc4ncc(N5CCN(C)CC5)cn4)CC3)c2c1)c1cnc([N+](=O)[O-])n1C (stereo partly drawn) [LFA2066, N-[4-[[3-[1-(3-methyl-2-nitro-imidazol-4-yl)ethoxy]-7-morpholino-1,6-naphthyridin-5-yl]oxy]cyclohexyl]-5-(4-methylpiperazin-1-yl)pyrimidin-2-amine] | 10000 to 30000 | A (A is 0.15 to 1) | B (B is 0.05 to 0.15) | 10 to 500 | 1000 to 10000 | 1000 to 10000
8 | CC(c1cnn(C)c1[N+](=O)[O-])N(c1cnc2cc(N3CCOCC3)nc(O[C@H]3CC[C@@H](Nc4ncc(N5CCN(C)CC5)cn4)CC3)c2c1)S(C)(=O)=O (stereo partly drawn) [LFA2067, N-[1-(1-methyl-5-nitro-pyrazol-4-yl)ethyl]-N-[5-[4-[[5-(4-methylpiperazin-1-yl)pyrimidin-2-yl]amino]cyclohexoxy]-7-morpholino-1,6-naphthyridin-3-yl]methanesulfonamide] | 1000 to 10000 | B (B is 0.05 to 0.15) | B (B is 0.05 to 0.15) | 10 to 500 | 500 to 1000 | 1000 to 10000
9 | CC(c1cnc([N+](=O)[O-])n1C)N(c1cnc2cc(N3CCOCC3)nc(O[C@H]3CC[C@@H](Nc4ncc(OC5CCN(C)C5)cn4)CC3)c2c1)S(C)(=O)=O (stereo partly drawn) [LFA2068, N-[1-(3-methyl-2-nitro-imidazol-4-yl)ethyl]-N-[5-[4-[[5-(1-methylpyrrolidin-3-yl)oxypyrimidin-2-yl]amino]cyclohexoxy]-7-morpholino-1,6-naphthyridin-3-yl]methanesulfonamide] | 1000 to 10000 | B (B is 0.05 to 0.15) | D (D is 0 to 0.02) | 500 to 1000 | 1000 to 10000 | 10000 to 100000
10 | Cn1c(COc2cnc3cc(N4CCOCC4)nc(O[C@H]4CC[C@@H](Nc5ncc(OCCN6CCOCC6)cn5)CC4)c3c2)cnc1[N+](=O)[O-] [LFA2069, N-[4-[[3-[(3-methyl-2-nitro-imidazol-4-yl)methoxy]-7-morpholino-1,6-naphthyridin-5-yl]oxy]cyclohexyl]-5-(2-morpholinoethoxy)pyrimidin-2-amine] | 10000 to 30000 | A (A is 0.15 to 1) | C (C is 0.02 to 0.05) | 10 to 500 | 1000 to 10000 | 1000 to 10000
11 | CC(c1cnc([N+](=O)[O-])n1C)N(c1cnc2cc(N3CCOCC3)nc(O[C@H]3CC[C@@H](Nc4ncc(N5CCN(C)CC5)cn4)CC3)c2c1)S(C)(=O)=O (stereo partly drawn) [LFA2070, N-[1-(3-methyl-2-nitro-imidazol-4-yl)ethyl]-N-[5-[4-[[5-(4-methylpiperazin-1-yl)pyrimidin-2-yl]amino]cyclohexoxy]-7-morpholino-1,6-naphthyridin-3-yl]methanesulfonamide] | 10000 to 30000 | B (B is 0.05 to 0.15) | D (D is 0 to 0.02) | 10 to 500 | 1000 to 10000 | 10000 to 100000
12 | Cn1c(COc2cnc3cc(N4CCOCC4)nc(O[C@H]4CC[C@@H](N(C)c5ncccn5)CC4)c3c2)cnc1[N+](=O)[O-] [LFA2071, N-methyl-N-[4-[[3-[(3-methyl-2-nitro-imidazol-4-yl)methoxy]-7-morpholino-1,6-naphthyridin-5-yl]oxy]cyclohexyl]pyrimidin-2-amine] | 10000 to 30000 | A (A is 0.15 to 1) | B (B is 0.05 to 0.15) | 10 to 500 | 1000 to 10000 | 1000 to 10000
13 | CN1CCN(c2cnc(N[C@H]3CC[C@@H](Oc4nc(N5CCOCC5)cc5ncc(N(Cc6cnn(C)c6[N+](=O)[O-])S(C)(=O)=O)cc45)CC3)nc2)CC1 [LFA2072, N-[(1-methyl-5-nitro-pyrazol-4-yl)methyl]-N-[5-[4-[[5-(4-methylpiperazin-1-yl)pyrimidin-2-yl]amino]cyclohexoxy]-7-morpholino-1,6-naphthyridin-3-yl]methanesulfonamide] | 1000 to 10000 | B (B is 0.05 to 0.15) | B (B is 0.05 to 0.15) | 10 to 500 | 10 to 500 | 1000 to 10000
